Experimental data reported in US9540376B2, “Hexahydrodiazepinoquinolines carrying a substituted alkyl radical” (priority 2014, dated 2017).
pEC50: −log10 of the molar value.

How the values were obtained:
Type in all cases: cell-based
human 5-HT2A receptor = target: T1, human 5-HT2A receptor (Homo sapiens, UniProt P28223); assay: Human 5-HT2A functional assay (calcium mobilisation in CHO-K1 cells); conditions: for pEC50: potency in functional assay, agonism (first addition), calcium mobilisation; for Emax: CHO-K1, read-out: % efficacy (5-HT2A); for Selectivity (based on agonism) EC50 5-HT2A/EC50 5-HT2C: ratio EC50 5-HT2A/EC50 5-HT2C
T1 construct: expressed in transfected cells; host or cells: CHO-K1
Experimental: 2. Human 5-HT2A Functional Assay
Cells were seeded into sterile black 384-well plates with clear bottom at 25,000 cells/well in a volume of 25 μl and grown for 5-6 hours at 37° C., in 5% CO2 in tissue culture medium (“Ultra CHO” by LONZA), containing 1% dialysed FCS and 50 μg/ml gentamicin (Invitrogen). After this incubation, medium was replaced by a serum free version of the same tissue culture medium followed by incubation overnight at 37° C. and in 5% CO2. Cells were then loaded with a fluorescent calcium-sensitive dye in the presence of 0.07% probenecid for an hour at 37° C., according to the manufacturer's protocol (Ca5-Assay Kit, Molecular Devices), followed by an additional 60 min incubation at room temperature. […] The relative efficacy of the compounds was calculated as a percentage of the maximal effect induced by serotonin alone (defined as 100%). To determine EC50/IC50 values, concentration-response curves were fitted using a four-parameter logistic equation (IDBS Biobook™). Kb values were calculated from IC50 values, according to Cheng & Prusoff.

5-HT2C receptor = target: T2, 5-HT2C receptor (Homo sapiens, UniProt P28335); assay: Human 5-HT2C functional assay (beta-arrestin2 recruitment, U2OS_HTR2C_β-Arrestin cells); conditions: for pEC50: potency in functional assay, beta-arrestin2 recruitment, 1.5 h incubation; for Emax: read-out: % efficacy (5-HT2C), relative efficacy vs 10 μM 5-HT or maximal 5-HT effect (100%); for % efficacy (5-HT2C): relative efficacy vs 10 μM 5-HT or maximal 5-HT effect (100%)
T2 construct: host or cells: U2OS
Experimental: 1. Human 5-HT2C Functional Assay
The functional activity of compounds of formula I was assayed by incubation with U2OS_HTR2C_β-Arrestin cells (DiscoverX, 93-0289C3) to induce beta-arrestin2 recruitment to the 5-HT2C receptor. The agonist-induced recruitment and proximity of the receptor and beta-arrestin2 leads to complementation and formation of active β-galactosidase. The enzyme complementation results in enzyme activity, which is measured following the termination of the agonist incubation using DiscoveRx's detection reagent, which contains a chemiluminescent substrate which produces a high intensity signal. Cells were plated and a medium-change to a 1% serum containing medium was performed 24 h later. The next day, test compounds were added and incubated for 1.5 h before addition of detection reagent.
The response produced was measured and compared with the response produced by 10 [mu]M 5-HT or the maximal effect induced by 5-HT (defined as 100%) to which it was expressed as a percentage response (relative efficacy).

human 5-HT2B receptor = target: T3, human 5-HT2B receptor (Homo sapiens, UniProt P41595); assay: Human 5-HT2B functional assay (calcium mobilisation in CHO-FlpIn cells); conditions: for pEC50: potency in functional assay, agonism (first addition), calcium mobilisation; for Selectivity (based on agonism) EC50 5-HT2B/EC50 5-HT2C: ratio EC50 5-HT2B/EC50 5-HT2C; for Emax: read-out: % efficacy (5-HT2B), relative efficacy vs maximal effect of serotonin alone (100%)
T3 construct: expressed in transfected cells; host or cells: CHO-FlpIn
Experimental: 3. Human 5-HT2B Functional Assay
Cells were seeded into sterile black 384-well plates with clear bottom at 30,000 cells/well in a volume of 25 μl and grown overnight at 37° C., in 5% CO2 in tissue culture medium (“CHO-S-SFM II” by Invitrogen), containing 1% dialysed FCS and 50 μg/ml gentamicin (Invitrogen). On the next morning, medium was replaced by a serum free version of the same tissue culture medium for a further incubation for 4 hours at 37° C. and in 5% CO2. Cells were then loaded with a fluorescent calcium-sensitive dye in the presence of 0.07% probenecid for an hour at 37° C., according to the manufacturer's protocol (Ca5-Assay Kit, Molecular Devices), followed by an additional 60 min incubation at room temperature. Serial compound dilutions (final concentrations of 10^−10 to 10^−5M, prepared in HBSS+50 mM HEPES) were first added to the cells alone (“first addition” to assess agonism on the 5-HT2B receptor), then after 8 min, serotonin was added to the same wells at a final concentration of 10^−8 M (“second addition” to see potential antagonistic effect) and the maximal calcium response was determined using a FLIPR® Tetra instrument (Molecular Devices) in each of the two steps. The relative efficacy of the compounds was calculated as a percentage of the maximal effect induced by serotonin alone (defined as 100%). To determine EC50/IC50 values, concentration-response curves were fitted using a four-parameter logistic equation (IDBS Biobook™). Kb values were calculated from IC50 values, according to Cheng & Prusoff.

T1 sequence (P28223 whole entry): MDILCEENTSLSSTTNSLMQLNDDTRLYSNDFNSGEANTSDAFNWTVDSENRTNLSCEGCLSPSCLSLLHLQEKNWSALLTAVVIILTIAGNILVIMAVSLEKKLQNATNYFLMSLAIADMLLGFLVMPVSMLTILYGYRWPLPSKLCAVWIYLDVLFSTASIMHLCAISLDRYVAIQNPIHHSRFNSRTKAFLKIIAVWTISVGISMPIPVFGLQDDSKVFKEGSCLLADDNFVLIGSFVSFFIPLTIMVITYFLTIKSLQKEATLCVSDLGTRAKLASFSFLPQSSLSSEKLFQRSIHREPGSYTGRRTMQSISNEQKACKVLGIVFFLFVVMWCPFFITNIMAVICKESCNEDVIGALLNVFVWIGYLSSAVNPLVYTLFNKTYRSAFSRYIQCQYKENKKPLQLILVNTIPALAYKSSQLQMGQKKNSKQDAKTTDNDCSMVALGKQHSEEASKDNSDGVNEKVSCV
T2 sequence (P28335 33-458): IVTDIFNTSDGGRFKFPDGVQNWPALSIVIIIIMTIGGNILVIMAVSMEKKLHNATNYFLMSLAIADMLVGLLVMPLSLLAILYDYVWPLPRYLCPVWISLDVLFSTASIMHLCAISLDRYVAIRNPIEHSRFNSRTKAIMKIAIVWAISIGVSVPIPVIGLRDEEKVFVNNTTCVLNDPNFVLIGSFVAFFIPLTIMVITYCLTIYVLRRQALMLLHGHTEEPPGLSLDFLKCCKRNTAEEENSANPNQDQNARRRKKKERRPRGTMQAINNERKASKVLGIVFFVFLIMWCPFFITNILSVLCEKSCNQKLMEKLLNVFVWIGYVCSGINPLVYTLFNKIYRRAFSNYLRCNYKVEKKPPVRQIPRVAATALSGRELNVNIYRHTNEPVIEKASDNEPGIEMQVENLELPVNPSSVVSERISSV
T2 sequence (P32121 whole entry partner): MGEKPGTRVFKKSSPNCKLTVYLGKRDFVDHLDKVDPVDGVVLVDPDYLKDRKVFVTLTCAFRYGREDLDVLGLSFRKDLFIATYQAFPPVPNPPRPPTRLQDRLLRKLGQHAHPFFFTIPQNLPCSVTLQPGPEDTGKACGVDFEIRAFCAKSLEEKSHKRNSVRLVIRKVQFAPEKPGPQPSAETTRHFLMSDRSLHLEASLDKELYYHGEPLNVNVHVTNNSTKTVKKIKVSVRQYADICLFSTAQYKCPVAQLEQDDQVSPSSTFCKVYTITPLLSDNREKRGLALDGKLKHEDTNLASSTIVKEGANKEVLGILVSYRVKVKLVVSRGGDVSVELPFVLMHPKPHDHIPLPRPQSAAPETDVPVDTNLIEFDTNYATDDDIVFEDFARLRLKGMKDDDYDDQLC
T3 sequence (P41595 whole entry): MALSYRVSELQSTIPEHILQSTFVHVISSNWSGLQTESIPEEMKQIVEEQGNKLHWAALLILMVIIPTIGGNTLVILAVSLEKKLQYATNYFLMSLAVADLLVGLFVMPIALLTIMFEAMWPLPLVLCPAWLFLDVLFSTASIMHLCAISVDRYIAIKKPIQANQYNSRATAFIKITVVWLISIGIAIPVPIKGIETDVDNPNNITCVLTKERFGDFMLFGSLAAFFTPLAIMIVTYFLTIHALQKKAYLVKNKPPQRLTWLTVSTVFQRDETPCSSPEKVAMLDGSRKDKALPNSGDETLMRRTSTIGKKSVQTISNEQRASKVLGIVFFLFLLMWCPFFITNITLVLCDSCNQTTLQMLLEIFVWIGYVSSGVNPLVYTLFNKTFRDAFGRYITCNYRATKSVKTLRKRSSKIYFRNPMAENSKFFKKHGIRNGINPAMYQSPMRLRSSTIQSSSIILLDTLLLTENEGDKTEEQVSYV

SMILES	pEC50 (human 5-HT2A receptor)	pEC50 (5-HT2C receptor)	Emax (5-HT2C receptor)	pEC50 (human 5-HT2B receptor)	other results
CC1CNCc2cccc3c2N1CCC3C(F)(F)F (single isomer, unassigned) [Isomer 4.A, 4-methyl-8-(trifluoromethyl)-2,3,4,6,7,8-hexahydro-1H-[1,4]diazepino[6,7,1-ij]quinoline]	< 5.00	> 7.70	101%	< 5.00	–
CC1CNCc2cccc3c2N1CCC3C(F)(F)F (single isomer, unassigned) [Isomer 4.B, 4-methyl-8-(trifluoromethyl)-2,3,4,6,7,8-hexahydro-1H-[1,4]diazepino[6,7,1-ij]quinoline]	–	6.70 to 7.70	–	< 5.00	pEC50 (human 5-HT2A receptor; listed as 4.B): < 5.00; % efficacy (5-HT2C) (5-HT2C receptor; listed as 4.B): 87%
CC1CNCc2cccc3c2N1CCC3C(F)(F)F (single isomer, unassigned) [Isomer 4.C, 4-methyl-8-(trifluoromethyl)-2,3,4,6,7,8-hexahydro-1H-[1,4]diazepino[6,7,1-ij]quinoline]	6.70 to 7.70	> 7.70	–	6.70 to 7.70	Emax (human 5-HT2A receptor): 24%; Selectivity (based on agonism) EC50 5-HT2A/EC50 5-HT2C (human 5-HT2A receptor): 2; % efficacy (5-HT2C) (5-HT2C receptor; listed as 4.C): 101%; Selectivity (based on agonism) EC50 5-HT2B/EC50 5-HT2C (human 5-HT2B receptor; listed as 4.C): 12; Emax (human 5-HT2B receptor): 44%
CC1CNCc2cccc3c2N1CCC3C(F)(F)F (single isomer, unassigned) [Isomer 4.D, 4-methyl-8-(trifluoromethyl)-2,3,4,6,7,8-hexahydro-1H-[1,4]diazepino[6,7,1-ij]quinoline]	–	6.00 to 6.70	–	6.00 to 6.70	pEC50 (human 5-HT2A receptor; listed as 4.D): < 5.00; % efficacy (5-HT2C) (5-HT2C receptor; listed as 4.D): 86%; Selectivity (based on agonism) EC50 5-HT2B/EC50 5-HT2C (human 5-HT2B receptor; listed as 4.D): 2; % efficacy (5-HT2B) (human 5-HT2B receptor; relative efficacy vs maximal effect of serotonin alone (100%)): 30%
CC1CNCc2cccc3c2N1CCC3C(F)F (single isomer, unassigned) [Isomer 5.A, 8-(difluoromethyl)-4-methyl-2,3,4,6,7,8-hexahydro-1H-[1,4]diazepino[6,7,1-ij]quinoline]	> 7.70	> 7.70	–	6.00 to 6.70	Emax (human 5-HT2A receptor): 21%; Selectivity (based on agonism) EC50 5-HT2A/EC50 5-HT2C (human 5-HT2A receptor): 0.5; % efficacy (5-HT2C) (5-HT2C receptor; listed as 5.A): 109%; Selectivity (based on agonism) EC50 5-HT2B/EC50 5-HT2C (human 5-HT2B receptor): 20; Emax (human 5-HT2B receptor): 36%
CC1CNCc2cccc3c2N1CCC3C(F)F (single isomer, unassigned) [Isomer 5.B, 8-(difluoromethyl)-4-methyl-2,3,4,6,7,8-hexahydro-1H-[1,4]diazepino[6,7,1-ij]quinoline]	< 5.00	6.70 to 7.70	–	< 5.00	% efficacy (5-HT2C) (5-HT2C receptor; listed as 5.B): 110%
CC1CNCc2cccc3c2N1CCC3C(F)F (single isomer, unassigned) [Isomer 5.C, 8-(difluoromethyl)-4-methyl-2,3,4,6,7,8-hexahydro-1H-[1,4]diazepino[6,7,1-ij]quinoline]	–	6.00 to 6.70	–	< 5.00	pEC50 (human 5-HT2A receptor; listed as 5.C): < 5.00; % efficacy (5-HT2C) (5-HT2C receptor; listed as 5.C): 89%
CC1CNCc2cccc3c2N1CCC3C(F)F (single isomer, unassigned) [Isomer 5.D, 8-(difluoromethyl)-4-methyl-2,3,4,6,7,8-hexahydro-1H-[1,4]diazepino[6,7,1-ij]quinoline]	–	6.00 to 6.70	–	< 5.00	pEC50 (human 5-HT2A receptor; listed as 5.D): < 5.00; % efficacy (5-HT2C) (5-HT2C receptor; listed as 5.D): 84%
CC1CNCc2cccc3c2N1CCC3C(F)(F)F (centres unmarked) [Example 4, 4-Methyl-8-(trifluoromethyl)-2,3,4,6,7,8-hexahydro-1H-[1,4]diazepino[6,7,1-ij]quinoline]	< 5.00	6.70 to 7.70	104%	< 5.00	–
CC1CNCc2cccc3c2N1CCC3C(F)F (centres unmarked) [Example 5, 8-(Difluoromethyl)-4-methyl-2,3,4,6,7,8-hexahydro-1H-[1,4]diazepino[6,7,1-ij]quinoline]	< 5.00	6.70 to 7.70	95%	< 5.00	–
CC1CNCc2cccc3c2N1CCC3CF (centres unmarked) [Example 7, 8-(Fluoromethyl)-4-methyl-2,3,4,6,7,8-hexahydro-1H-[1,4]diazepino[6,7,1-ij]quinoline]	< 5.00	6.70 to 7.70	107%	< 5.00	–
CCOCC1CCN2c3c(cccc31)CNCC2C (centres unmarked) [Example 8, 8-(Ethoxymethyl)-4-methyl-2,3,4,6,7,8-hexahydro-1H-[1,4]diazepino[6,7,1-ij]quinoline]	< 5.00	6.00 to 6.70	93%	< 5.00	–
COCC1CCN2c3c(cccc31)CNCC2C (centres unmarked) [Example 9, 8-(Methoxymethyl)-4-methyl-2,3,4,6,7,8-hexahydro-1H-[1,4]diazepino[6,7,1-ij]quinoline]	< 5.00	6.00 to 6.70	82%	< 5.00	–
